Earlier results on one substance are cited in US20250170284A1, “Hydroxamic Acid Macrocyclic Agents With Pendant Chelating Moieties And Complexes Thereof” (LUMIPHORE, INC., priority 2022, published 2025).

For the data set the following is noted: complex formation of the ligand with thorium(IV).

For “diethylenetriamine pentaacetic acid [DTPA]”, the “Log K1” value is listed as 30.34.
